Patent US12042547B2, “Method for producing luminescent particles, luminescent particles, and bioimaging material” (KYULUX, INC., priority 2018, dated 2024)

Assay: Evaluation of luminescence properties (emission maximum, PL quantum yield, emission lifetime)
Type: physicochemical
Conditions: toluene solution 1.0×10^−5 mol/L, 340-nm excitation
Protocol: The following examples illustrate the present invention in greater detail. It is to be understood that changes may be made to the below-described materials, processing manner, processing procedure, etc. without departing from the scope of the present invention. Thus, the present invention should not be construed as limited to the following examples. An evaluation of luminescence properties was performed by using an optical spectroscope (PMA-12, manufactured by Hamamatsu Photonics K.K.), and an observation of the shape of particles was performed by using a scanning electron microscope (Inspect S, manufactured by FEI). The average diameter and the polydispersion index of luminescent particles were determined by cumulant analysis using a dynamic light scattering measurement device (DLS-8000DL, manufactured by Otsuka Electronics Co., Ltd.).
The example particles 1, the example particles 2 and the comparative particles 1 were separately dispersed in water to prepare three aqueous dispersions (0.05 μg/L). For each of the aqueous dispersions and a toluene solution of 4CzIPN (1.0×10^−5 mol/L), the emission maximum wavelength, the PL quantum yield (photoluminescence quantum yield) and the emission lifetime τ1, τ2 were measured using 340-nm excitation light.
The resulting luminescent particles contained particles having a maximum diameter of less than 1000 nm. The resulting luminescent particles were dispersed in water to prepare an aqueous dispersion (0.05 μg/L). The aqueous dispersion was subjected to measurement of the emission spectrum with 340-nm excitation light. […] The full width at half maximum (FWHM) was as narrow as 29 nm.

Compound: N#Cc1c(-n2c3ccccc3c3ccccc32)c(C#N)c(-n2c3ccccc3c3ccccc32)c(-n2c3ccccc3c3ccccc32)c1-n1c2ccccc2c2ccccc21 [4CzIPN]
- Emission lifetime τ1 (after nitrogen bubbling): 16 ns
- Emission lifetime τ2 (after nitrogen bubbling): 4.71 μs
- Emission maximum wavelength (after nitrogen bubbling): 505 nm
- PL quantum Yield (after nitrogen bubbling): 83%
- Emission lifetime τ1 (before nitrogen bubbling): 11 ns
- Emission lifetime τ2 (before nitrogen bubbling): 0.31 μs
- Emission maximum wavelength (before nitrogen bubbling): 505 nm
- PL quantum Yield (before nitrogen bubbling): 21%
